The values that follow come from patent publication US11634425B2, “Pharmaceutical compounds” (priority 2019, dated 2023).

Each structure is given as a SMILES string. Read-outs that look alike come from different tables or passages of the source.

The nature of one data set: in vitro. The format is in vitro ADME. The conditions noted are these: microsomes, pH 7.4, 1 μM compound, 0.5 mg/mL protein, read-out: Liver Microsomal Stability t1/2. In short, it runs like this:
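Pooled liver microsomes (0.5 mg/mL protein) in 0.1 M phosphate pH 7.4 with 1 μM compound and 1 mM NADPH at 37° C., sampled at 0–45 min; minus-NADPH control at 45 min. Acetonitrile quench, LC-MS/MS; t1/2 and CLint from ln peak-area ratio vs time slope.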

The nature of a further data set: Cell cytotoxicity (CC50). Conditions: human; mean of at least two experiments. The class given is cell-based. In short, it runs like this:
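Values are means of ≥2 independent runs, rounded to whole units, from 4-parameter variable-slope curve fits. Toxicity measured in Hep-G2 cells run alongside RSV plaque-reduction assays.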

A further data set relates to RSV A2. Description: RSV plaque reduction assay. The conditions noted are these: human respiratory syncytial virus, HepG2, Hep-G2 cells, mean of at least two experiments. The format is cell-based, respiratory syncytial virus (RSV). The method in brief: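 RSV A2 at 100 PFU/well was premixed with eight compound dilutions and added to confluent Hep-G2 monolayers for 2 h at 37 °C. Cells were then kept 2 days under a DMEM/2% FBS/0.8% CMC overlay containing compound. Immunostained plaques were counted relative to virus controls, and EC50 came from 4-parameter fits, averaged over at least two experiments.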

Regarding `O=C(N[C@H]1N=C(c2ccccc2)c2cccc(F)c2NC1=O)c1c(-c2c(F)cccc2F)nn2cccnc12` [Example 44, 2-(2,6-Difluorophenyl)-N-[(3S)-9-fluoro-2-oxo-5-phenyl-1,3-dihydro-1,4-benzodiazepin-3-yl]pyrazolo[1,5-a]pyrimidine-3-carboxamide], the half-life at 1 μM in the data set “in vitro” (dog) stood at 12.5 h; in “in vitro” (human) it was 9.07 h; in “in vitro” (rat) it was 3.85 h. Besides, the cytotoxic concentration (CC50) in the data set “Cell cytotoxicity (CC50)” was > 25000 nM. The same compound came in with a 50% effective concentration (EC50) in the data set with RSV A2 of 87 nM.
On the same counts, the results for `O=C(N[C@H]1N=C(c2ccccc2)c2ccccc2NC1=O)c1c(-c2ccccc2)nn2cccnc12` [Example 12, N-[(3S)-2-oxo-5-phenyl-1,3-dihydro-1,4-benzodiazepin-3-yl]-2-phenylpyrazolo[1,5-a]pyrimidine-3-carboxamide] are 3.87 h, 4.4 h, > 2.33 h, > 25000 nM and 153 nM.
For `O=C(N[C@H]1N=C(c2ccccc2)c2ccccc2NC1=O)c1c(-c2ccc(C3CC3)nc2)nn2cccnc12` [Example 29, 2-(6-Cyclopropylpyridin-3-yl)-N-[(3S)-2-oxo-5-phenyl-1,3-dihydro-1,4-benzodiazepin-3-yl]pyrazolo[1,5-a]pyrimidine-3-carboxamide], the half-life at 1 μM in the data set “in vitro” (dog) is 1.23 h; in “in vitro” (human) it was 5.22 h; in “in vitro” (rat), 15.2 h. Also, the 50% cytotoxic concentration (CC50) in “Cell cytotoxicity (CC50)” was > 25000 nM. The same compound displayed an EC50 with RSV A2 of 72 nM.
`Cc1ccc2nc(-c3ccncc3F)c(C(=O)N[C@H]3N=C(c4ccccc4)c4cccc(F)c4NC3=O)n2n1` [Example 100, N-[(3S)-9-fluoro-2-oxo-5-phenyl-1,3-dihydro-1,4-benzodiazepin-3-yl]-2-(3-fluoropyridin-4-yl)-6-methylimidazo[1,2-b]pyridazine-3-carboxamide]: the half-life at 1 μM in the data set “in vitro” (dog) turned out to be 1.37 h; in the data set “in vitro” (human), 15.1 h; in the data set “in vitro” (rat), 0.457 h. The CC50 in the data set “Cell cytotoxicity (CC50)” was > 25000 nM. In the data set on RSV A2, this compound showed an EC50 of 47 nM.
For `Cc1ccc2nc(-c3ccc(F)cn3)c(C(=O)N[C@H]3N=C(c4ccccc4)c4cccc(F)c4NC3=O)n2n1` [Example 78, N-[(3S)-9-fluoro-2-oxo-5-phenyl-1,3-dihydro-1,4-benzodiazepin-3-yl]-2-(5-fluoropyridin-2-yl)-6-methylimidazo[1,2-b]pyridazine-3-carboxamide], the figures for the half-life at 1 μM in “in vitro” (dog), in the data set “in vitro” (human) and in “in vitro” (rat) were 4.17 h, 3.83 h and 0.923 h, respectively. Also, the CC50 in the data set “Cell cytotoxicity (CC50)” was > 25000 nM. Besides, the response in the data set with RSV A2 was half-maximal at 81 nM (EC50).
Regarding `CN1CC(Oc2ccc3nc(-c4ccccc4)c(C(=O)N[C@H]4N=C(c5ccccc5)c5cccc(F)c5NC4=O)n3n2)C1` [Example 109, N-[(3S)-9-Fluoro-2-oxo-5-phenyl-1,3-dihydro-1,4-benzodiazepin-3-yl]-6-(1-methylazetidin-3-yl)oxy-2-phenylimidazo[1,2-b]pyridazine-3-carboxamide], the half-life at 1 μM in “in vitro” (dog) was determined as 4.33 h; in the data set “in vitro” (human), 1.3 h; in the data set “in vitro” (rat), 1.15 h. The CC50 in “Cell cytotoxicity (CC50)” is > 16800 nM. This compound yielded an EC50 in the data set with RSV A2 of 96 nM.
For the compound `CCNc1ccc2nc(-c3ccccc3F)c(C(=O)N[C@H]3N=C(c4ccccc4)c4cccc(F)c4NC3=O)n2n1` [Example 106, 6-(Ethylamino)-N-[(3S)-9-fluoro-2-oxo-5-phenyl-1,3-dihydro-1,4-benzodiazepin-3-yl]-2-(2-fluorophenyl)imidazo[1,2-b]pyridazine-3-carboxamide], the half-life at 1 μM in “in vitro” (dog) came to 4.8 h; in “in vitro” (human) it was 0.792 h; in “in vitro” (rat), 1.46 h. For the same compound, the CC50 in the data set “Cell cytotoxicity (CC50)” was > 25000 nM. For the same compound, the midpoint of the response in the data set on RSV A2, the EC50, lay at 66 nM.
Regarding `O=C(N[C@H]1N=C(c2ccccc2)c2ccccc2NC1=O)c1c(-c2cncc(Cl)c2)nn2cccnc12` [Example 27, 2-(5-Chloropyridin-3-yl)-N-[(3S)-2-oxo-5-phenyl-1,3-dihydro-1,4-benzodiazepin-3-yl]pyrazolo[1,5-a]pyrimidine-3-carboxamide], the half-life at 1 μM in the data set “in vitro” (dog) was 0.997 h; in “in vitro” (human), 2.03 h; in the data set “in vitro” (rat), 8.75 h. The CC50 in “Cell cytotoxicity (CC50)” is > 25000 nM. The compound further gave an EC50 in the data set on RSV A2 of 61 nM.
For the compound `O=C(N[C@H]1N=C(c2ccccc2)c2ccccc2NC1=O)c1c(-c2cccc(F)c2F)nn2cccnc12` [Example 43, 2-(2,3-Difluorophenyl)-N-[(3S)-2-oxo-5-phenyl-1,3-dihydro-1,4-benzodiazepin-3-yl]pyrazolo[1,5-a]pyrimidine-3-carboxamide], the half-life at 1 μM in “in vitro” (dog) was 0.97 h; in the data set “in vitro” (human), 3.35 h; in “in vitro” (rat), 41.5 h. Besides, the CC50 in “Cell cytotoxicity (CC50)” is > 25000 nM. Further, the midpoint of the response in the data set with RSV A2, the EC50, lay at 60 nM.
For `CC(C)Nc1ccc(-c2nn3cccnc3c2C(=O)N[C@H]2N=C(c3ccccc3)c3cccc(F)c3NC2=O)cn1` [Example 74, N-[(3S)-9-Fluoro-2-oxo-5-phenyl-1,3-dihydro-1,4-benzodiazepin-3-yl]-2-[6-(propan-2-ylamino)pyridin-3-yl]pyrazolo[1,5-a]pyrimidine-3-carboxamide], the results for the half-life at 1 μM in the data set “in vitro” (dog), in the data set “in vitro” (human) and in “in vitro” (rat) were 0.725 h, 4.4 h and 1.17 h, respectively. For the same compound, in “Cell cytotoxicity (CC50)”, the CC50 was > 25000 nM. The compound also had a half-maximal effective concentration (EC50) with RSV A2 of 28 nM.
In the case of `CC(C)c1ccc(-c2nn3cccnc3c2C(=O)N[C@H]2N=C(c3ccccc3)c3cccc(F)c3NC2=O)cn1` [Example 59, 2-(6-Propan-2-ylpyridin-3-yl)-N-[(3S)-9-fluoro-2-oxo-5-phenyl-1,3-dihydro-1,4-benzodiazepin-3-yl]pyrazolo[1,5-a]pyrimidine-3-carboxamide], the half-life at 1 μM was 1.51 h in the data set “in vitro” (dog), 2.28 h in “in vitro” (human) and 1 h in the data set “in vitro” (rat). The CC50 in “Cell cytotoxicity (CC50)” is > 25000 nM. Besides, a half-maximal response with RSV A2 (EC50) required 60 nM.
Consider `COc1ccc2nc(-c3ccccc3F)c(C(=O)N[C@H]3N=C(c4ccccc4)c4cccc(F)c4NC3=O)n2n1` [Example 115, N-[(3S)-9-fluoro-2-oxo-5-phenyl-1,3-dihydro-1,4-benzodiazepin-3-yl]-2-(2-fluorophenyl)-6-methoxyimidazo[1,2-b]pyridazine-3-carboxamide], for which the half-life at 1 μM in the data set “in vitro” (dog) was 7.78 h; in the data set “in vitro” (human) it was 2.5 h; in “in vitro” (rat), 2.42 h. Besides, the CC50 in “Cell cytotoxicity (CC50)” is > 25000 nM. The 50% effective concentration (EC50) in the data set with RSV A2 came to 34 nM.
Consider `CNc1ccc(-c2nn3cccnc3c2C(=O)N[C@H]2N=C(c3ccccc3)c3ccccc3NC2=O)cc1` [Example 1, 2-[4-(Methylamino)phenyl]-N-[(3S)-2-oxo-5-phenyl-1,3-dihydro-1,4-benzodiazepin-3-yl]pyrazolo[1,5-a]pyrimidine-3-carboxamide], for which the half-life at 1 μM in the data set “in vitro” (dog) is 1.25 h; in “in vitro” (human), 1.22 h; in “in vitro” (rat), 0.678 h. Also, the 50% cytotoxic concentration (CC50) in “Cell cytotoxicity (CC50)” was > 25000 nM. The EC50 in the data set with RSV A2 was 35 nM.
`Cc1ccc2nc(-c3cccnc3)c(C(=O)N[C@H]3N=C(c4ccccc4)c4cccc(F)c4NC3=O)n2n1` [Example 96, N-[(3S)-9-fluoro-2-oxo-5-phenyl-1,3-dihydro-1,4-benzodiazepin-3-yl]-6-methyl-2-pyridin-3-ylimidazo[1,2-b]pyridazine-3-carboxamide]: the half-life at 1 μM was determined as 3.78 h in the data set “in vitro” (dog), 42.8 h in the data set “in vitro” (human) and 0.468 h in “in vitro” (rat). For the same compound, the CC50 in “Cell cytotoxicity (CC50)” is > 25000 nM. This compound returned a 50% effective concentration (EC50) in the data set on RSV A2 of 91 nM.
On to `COc1ccc(-c2nn3cccnc3c2C(=O)N[C@H]2N=C(c3ccccc3)c3ccccc3NC2=O)c(F)c1` [Example 14, 2-(2-Fluoro-4-methoxyphenyl)-N-[(3S)-2-oxo-5-phenyl-1,3-dihydro-1,4-benzodiazepin-3-yl]pyrazolo[1,5-a]pyrimidine-3-carboxamide], for which the half-life at 1 μM is 1.33 h in the data set “in vitro” (dog), > 2.33 h in the data set “in vitro” (human) and 2.72 h in the data set “in vitro” (rat). Also, the CC50 in the data set “Cell cytotoxicity (CC50)” is > 25000 nM. In the data set with RSV A2, this compound had an EC50 of 41 nM.
Turning to `O=C(N[C@H]1N=C(c2ccccc2)c2cccc(F)c2NC1=O)c1c(-c2ccc(F)cc2F)nn2cccnc12` [Example 5, 2-(2,4-Difluorophenyl)-N-[(3S)-9-fluoro-2-oxo-5-phenyl-1,3-dihydro-1,4-benzodiazepin-3-yl]pyrazolo[1,5-a]pyrimidine-3-carboxamide], the half-life at 1 μM in “in vitro” (dog) was 5.93 h; in the data set “in vitro” (human), > 2.33 h; in “in vitro” (rat), > 2.33 h. Further, in the data set “Cell cytotoxicity (CC50)”, the CC50 was > 25000 nM. In addition, the EC50 with RSV A2 turned out to be 39 nM.
Take `O=C(N[C@H]1N=C(c2ccccc2)c2ccccc2NC1=O)c1c(-c2ccccc2)nc2cccnn12` [Example 87, N-[(3S)-2-oxo-5-phenyl-1,3-dihydro-1,4-benzodiazepin-3-yl]-2-phenylimidazo[1,2-b]pyridazine-3-carboxamide]: the half-life at 1 μM in “in vitro” (dog) was determined as 1.12 h; in the data set “in vitro” (human) it was 68.8 h; in the data set “in vitro” (rat), 1.43 h. The CC50 in “Cell cytotoxicity (CC50)” is > 25000 nM. The compound also gave an EC50 in the data set on RSV A2 of 53 nM.
